# Results taken from PubChem BioAssay AID2060609 (Molecular Pharmacology Branch, DTP, NCI, 2025).
# System: 855422-203-R-J1-PDC complex spheroids, viability
# Experiment: Anticancer human tumor 855422-203-R-J1-PDC patient-derived bladder carcinoma cell line growth inhibition [CLK]
# Details: for IC50: curve of first compound; for viability, T/C: stronger effect = lower value
# Text: A high-throughput screen of multi-cell type tumor spheroids was designed to identify active combinations of […] and targeted small molecules. Complex spheroids include a stromal component modeled by human endothelial cells (HUVEC) and fibroblasts modeled by human mesenchymal stem cells (MSCs). The concentration ranges selected for each drug and investigational agent were based upon clinically achievable concentrations if the clinical Cmax of the agent was known.
# Compounds. The drugs and investigational agents: cirtuvivint (SM08502; NSC835563), CC-671 (NSC850746), vemurafenib (NSC761431), tapotoclax (NSC804041), sotorasib (NSC818433), adagrasib (NSC831453), MRTX-1133 (NSC836407), BAY2416964 (NSC825713), copanlisib (NSC816437), inavolisib (NSC800729), abemaciclib (NSC768073), osimertinib (NSC779217), entinostat (NSC756642), eltanexor (KPT-8602, NSC794443), venetoclax (NSC766270), ceralasertib (NSC777638), bortezomib (NSC756655), olaparib (NSC753686), talazoparib (NSC767125), alisertib (NSC759677), peposertib (NSC802822), gemcitabine (NSC613327), 5-fluorouracil (NSC19893), SN-38 (NSC673596), oxaliplatin (NSC266046), paclitaxel (NSC125973), and doxorubicin (NSC123127), were obtained from the National Cancer Institute (NCI) Developmental Therapeutics Program Chemical Repository. The FDA-approved anticancer drug set is available from the Developmental Therapeutics Program at https://dtp.cancer.gov/organization/dscb/obtaining/available plates.htm. […] The stock solutions were prepared in dimethyl sulfoxide (DMSO, Sigma-Aldrich, St. Louis, MO, cat. D2650), except for the platinum complexes which were prepared in saline (Quality Biological, Gaithersburg, MD, cat. 114-055-101), at 800-fold the tested concentration and stored at -70 degrees C prior to their use. All drugs and investigational agents were tested over a range starting from a high concentration at or near the clinical Cmax and decreasing in half-log increments. If the clinical Cmax for an agent had not been determined, the highest concentration tested was 10 microM.
# Cell Culture. All cells were maintained in an incubator at 37 degrees C and 5% CO2 with 95% humidity. The PDC lines were cultured according to standard operating procedures established by the NCI PDMR. Briefly, all PDCs were thawed and cultured in Matrigel-coated flasks prepared with a working solution of 1X Ham's F-12 nutrient mix, without supplementation (Invitrogen, Waltham, MA, cat. 11765054), 100 U/mL penicillin-streptomycin (Invitrogen, cat. 15140122), and 2.5% Matrigel (Corning Inc., Corning, NY, cat. 354248) for the first three passages. The 947758-054-R-J2-PDC line was cultured in 6B/Colon 1A media, which includes advanced DMEM/F-12 (Thermo Fisher Scientific, cat. 12634028), 10 mM HEPES (Thermo Fisher Scientific, cat. 15630080), 1X GlutaMAX supplement (Thermo Fisher Scientific, cat. 35050061), 0.1 mg/mL primocin (InvivoGen, cat. ant-pm-2), 10% defined fetal bovine serum, heat inactivated (HyClone Laboratories Inc., cat. SH30070.03HI), 1.25 mM N-Acetyl-L-cysteine (Sigma-Aldrich, cat. A9165), 10 mM nicotinamide (Sigma-Aldrich, cat. N0636), 1X B-27 supplement (Thermo Fisher Scientific, cat. 17504044), 1X N-2 supplement (Thermo Fisher Scientific, cat. 17502048), and 10 microM Y-27632 dihydrochloride (Tocris Bioscience, cat. 1254). The 876862-298-R-J1-PDC was cultured in 6E media, which includes all 6B/Colon 1A media components plus 50% L-WRN conditioned media (ATCC, cat. CRL-3276), 50 ng/mL recombinant human EGF recombinant protein (hEGF; Thermo Fisher Scientific, cat. PHG0311), 10 ng/mL recombinant human fibroblast growth factor 10 (hGFG-10; PeproTech, cat. 100-26), 1 ng/mL recombinant human fibroblast growth factor 2 (hFGF-2; PeproTech, cat. 100-18B), and 1 µM prostaglandin E2 (PGE2; Tocris, cat. 2296). The 227483-062-R1-J1-PDC line was cultured in Panc media, containing all 6E components except hFGF-2, with the addition of 500 nM SB-431542 (Selleckchem, cat. S1067) and 10 nM gastrin (Tocris, cat. 3006). […]
# 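Also: spheroids exposed to drugs for seven days before readout.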
# 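For viability, T/C in this document: 100% = DMSO vehicle control wells.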
structure (smiles),measurement,setting,value
COc1cccc2c1C(=O)c1c(O)c3c(c(O)c1C2=O)CC(O)(C(=O)CO)CC3OC1CC(N)C(O)C(C)O1 (configuration not stated) + CNC(=O)c1ccc(Nc2nc(OC3CCCC3)c3c(-c4ccc5nc(C)oc5c4)c[nH]c3n2)c(OC)c1,IC50,second compound 0.0316 µM,< 31.6 nM
same,IC50,second compound 0.1 µM,< 31.6 nM
same,IC50,second compound 0.316 µM,< 31.6 nM
same,IC50,second compound 1 µM,< 31.6 nM
same,IC50,second compound 3.16 µM,< 31.6 nM
same,IC50,second compound 10 µM,< 31.6 nM
same,"viability, T/C","second compound 0.0316 µM, first compound 0.0316 µM",10.3%
same,"viability, T/C","second compound 0.0316 µM, first compound 0.1 µM",2.45%
same,"viability, T/C","second compound 0.0316 µM, first compound 0.316 µM",0.72%
same,"viability, T/C","second compound 0.0316 µM, first compound 1 µM",0.22%
same,"viability, T/C","second compound 0.0316 µM, first compound 3.16 µM",0.45%
same,"viability, T/C","second compound 0.0316 µM, first compound 10 µM",0.6%
same,"viability, T/C","second compound 0.1 µM, first compound 0.0316 µM",11%
same,"viability, T/C","second compound 0.1 µM, first compound 0.1 µM",1.62%
same,"viability, T/C","second compound 0.1 µM, first compound 0.316 µM",1.02%
same,"viability, T/C","second compound 0.1 µM, first compound 1 µM",0.3%
same,"viability, T/C","second compound 0.1 µM, first compound 3.16 µM",0.4%
same,"viability, T/C","second compound 0.1 µM, first compound 10 µM",0.51%
same,"viability, T/C","second compound 0.316 µM, first compound 0.0316 µM",9.64%
same,"viability, T/C","second compound 0.316 µM, first compound 0.1 µM",1.3%
same,"viability, T/C","second compound 0.316 µM, first compound 0.316 µM",0.46%
same,"viability, T/C","second compound 0.316 µM, first compound 1 µM",0.22%
same,"viability, T/C","second compound 0.316 µM, first compound 3.16 µM",0.45%
same,"viability, T/C","second compound 0.316 µM, first compound 10 µM",0.55%
same,"viability, T/C","second compound 1 µM, first compound 0.0316 µM",7.4%
same,"viability, T/C","second compound 1 µM, first compound 0.1 µM",1.13%
same,"viability, T/C","second compound 1 µM, first compound 0.316 µM",0.24%
same,"viability, T/C","second compound 1 µM, first compound 1 µM",0.56%
same,"viability, T/C","second compound 1 µM, first compound 3.16 µM",0.58%
same,"viability, T/C","second compound 1 µM, first compound 10 µM",0.82%
same,"viability, T/C","second compound 3.16 µM, first compound 0.0316 µM",9.03%
same,"viability, T/C","second compound 3.16 µM, first compound 0.1 µM",0.94%
same,"viability, T/C","second compound 3.16 µM, first compound 0.316 µM",0.2%
same,"viability, T/C","second compound 3.16 µM, first compound 1 µM",0.62%
same,"viability, T/C","second compound 3.16 µM, first compound 3.16 µM",0.98%
same,"viability, T/C","second compound 3.16 µM, first compound 10 µM",0.75%
same,"viability, T/C","second compound 10 µM, first compound 0.0316 µM",6.1%
same,"viability, T/C","second compound 10 µM, first compound 0.1 µM",0.68%
same,"viability, T/C","second compound 10 µM, first compound 0.316 µM",0.35%
same,"viability, T/C","second compound 10 µM, first compound 1 µM",0.72%
same,"viability, T/C","second compound 10 µM, first compound 3.16 µM",0.63%
same,"viability, T/C","second compound 10 µM, first compound 10 µM",1.3%
